US9346815B2, “5-chloro-2-difluoromethoxyphenyl pyrazolopyrimidine compounds, compositions and methods of use thereof” (Genentech, Inc., priority 2014, dated 2016)
Where a name gives a salt, the structure may show the parent alone.

Legend:
[1] = target: isolated recombinant JAK2 kinase domain (Homo sapiens (Human), UniProt O60674); experiment: JAK2 enzyme assay (Caliper LabChip, peptide phosphorylation); format: biochemical; conditions: 25 μM ATP
[2] = system: JAK1-dependent STAT6 phosphorylation downstream of IL-13 stimulation in BEAS-2B human bronchial epithelial cells; experiment: JAK1 pathway assay in BEAS-2B cells (IL-13-pSTAT6, MSD); format: cell-based; conditions: read-out: IL13-pSTAT6 EC50 (uM)_BEAS-2B
Method in brief: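 Compound preincubation lasted 1 hr for BEAS-2B cells in complete growth medium and 30 min for GM-CSF-starved TF-1 cells in serum-free medium. EC50 values were determined.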

[3] = target: isolated recombinant JAK1 kinase domain (Homo sapiens (Human), UniProt P23458); experiment: JAK1 enzyme assay (Caliper LabChip, peptide phosphorylation); format: biochemical; conditions: isolated recombinant JAK1 kinase domain, 25 μM ATP
Chain of isolated recombinant JAK1 kinase domain (P23458 875-1153): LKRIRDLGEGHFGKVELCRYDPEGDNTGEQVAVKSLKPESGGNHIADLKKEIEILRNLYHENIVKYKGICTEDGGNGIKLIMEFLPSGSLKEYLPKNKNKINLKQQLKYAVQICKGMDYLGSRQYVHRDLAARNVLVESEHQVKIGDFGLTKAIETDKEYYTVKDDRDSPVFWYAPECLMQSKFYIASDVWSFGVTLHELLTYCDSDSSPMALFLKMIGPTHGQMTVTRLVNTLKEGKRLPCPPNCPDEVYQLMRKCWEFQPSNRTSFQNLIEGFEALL

Chain of isolated recombinant JAK2 kinase domain (O60674 849-1124): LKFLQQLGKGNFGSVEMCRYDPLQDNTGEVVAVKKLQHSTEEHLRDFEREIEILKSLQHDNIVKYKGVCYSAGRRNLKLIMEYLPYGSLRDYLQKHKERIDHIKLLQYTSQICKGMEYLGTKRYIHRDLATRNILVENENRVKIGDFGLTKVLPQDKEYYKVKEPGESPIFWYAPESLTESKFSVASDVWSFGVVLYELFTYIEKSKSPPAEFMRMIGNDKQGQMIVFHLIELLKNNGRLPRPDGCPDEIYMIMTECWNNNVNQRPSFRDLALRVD

Row | Ki [1] [nM] | Ki [3] [nM] | Compound | EC50 [2] [µM]
1 | 1.79 | 0.44 | CN(C)CCOC(=O)C1(C)CCN(C(=O)Cn2cc(NC(=O)c3cnn4cccnc34)c(-c3cc(Cl)ccc3OC(F)F)n2)CC1 [Example 340, 2-(dimethylamino)ethyl 1-(2-[3-[5-chloro-2-(difluoromethoxy)phenyl]-4-[pyrazolo[1,5-a]pyrimidine-3-amido]-1H-pyrazol-1-yl]acetyl)-4-methylpiperidine-4-carboxylate] | 0.009
2 | 2.62 | 0.53 | O=C(Nc1cn(CC(=O)N2CCC(C(=O)OCC3CCNCC3)CC2)nc1-c1cc(Cl)ccc1OC(F)F)c1cnn2cccnc12 [Example 341, piperidin-4-ylmethyl 1-(2-[3-[5-chloro-2-(difluoromethoxy)phenyl]-4-[pyrazolo[1,5-a]pyrimidine-3-amido]-1H-pyrazol-1-yl]acetyl)piperidine-4-carboxylate] | 0.534
3 | 0.2 | 0.19 | O=C(Nc1cn(CC(=O)N2CCC(C(=O)O)CC2)nc1-c1cc(Cl)ccc1OC(F)F)c1cnn2cccnc12 [Example 342, 1-(2-[3-[5-chloro-2-(difluoromethoxy)phenyl]-4-[pyrazolo[1,5-a]pyrimidine-3-amido]-1H-pyrazol-1-yl]acetyl)piperidine-4-carboxylic acid] | 1.81
4 | 1.9 | 0.7 | CN(CC1CCC(=O)O1)C1CCN(C(=O)Cn2cc(NC(=O)c3cnn4cccnc34)c(-c3cc(Cl)ccc3OC(F)F)n2)CC1 (stereo not drawn) [Example 344, N-[3-[5-chloro-2-(difluoromethoxy)phenyl]-1-[2-(4-[methyl[(5-oxooxolan-2-yl)methyl]amino]piperidin-1-yl)-2-oxoethyl]-1H-pyrazol-4-yl]pyrazolo[1,5-a]pyrimidine-3-carboxamide] | 0.0484
5 | 1.47 | 0.59 | COC(=O)CCN(C)C1CCN(C(=O)Cn2cc(NC(=O)c3cnn4cccnc34)c(-c3cc(Cl)ccc3OC(F)F)n2)CC1 [Example 345, methyl 3-[[1-(2-[3-[5-chloro-2-(difluoromethoxy)phenyl]-4-[pyrazolo[1,5-a]pyrimidine-3-amido]-1H-pyrazol-1-yl]acetyl)piperidin-4-yl](methyl)amino]propanoate] | 0.0166
6 | 0.31 | 0.37 | CSc1ccc(CNCCn2cc(NC(=O)c3cnn4cccnc34)c(-c3cc(Cl)ccc3OC(F)F)n2)cc1 [Example 346, N-[3-[5-chloro-2-(difluoromethoxy)phenyl]-1-[2-([[4-(methylsulfanyl)phenyl]methyl]amino)ethyl]-1H-pyrazol-4-yl]pyrazolo[1,5-a]pyrimidine-3-carboxamide formate] | 0.115
7 | 0.76 | 0.39 | O=C1CC(N2CCN(C(=O)Cn3cc(NC(=O)c4cnn5cccnc45)c(-c4cc(Cl)ccc4OC(F)F)n3)CC2)CCO1 (stereo not drawn) [Example 347, N-[3-[5-chloro-2-(difluoromethoxy)phenyl]-1-[2-oxo-2-[4-(2-oxooxan-4-yl)piperazin-1-yl]ethyl]-1H-pyrazol-4-yl]pyrazolo[1,5-a]pyrimidine-3-carboxamide] | 0.0307
8 | 1.65 | 0.55 | CN1CCN(C2CCN(C(=O)Cn3cc(NC(=O)c4cnn5cccnc45)c(-c4cc(Cl)ccc4OC(F)F)n3)CC2)CC1 [Example 349, N-[3-[5-chloro-2-(difluoromethoxy)phenyl]-1-[2-[4-(4-methylpiperazin-1-yl)piperidin-1-yl]-2-oxoethyl]-1H-pyrazol-4-yl]pyrazolo[1,5-a]pyrimidine-3-carboxamide] | 0.0155
9 | 1.42 | 0.43 | CN1CCN(CC2CCN(C(=O)Cn3cc(NC(=O)c4cnn5cccnc45)c(-c4cc(Cl)ccc4OC(F)F)n3)CC2)CC1 [Example 350, N-[3-[5-chloro-2-(difluoromethoxy)phenyl]-1-(2-[4-[(4-methylpiperazin-1-yl)methyl]piperidin-1-yl]-2-oxoethyl)-1H-pyrazol-4-yl]pyrazolo[1,5-a]pyrimidine-3-carboxamide] | 0.0094
10 | 0.94 | 0.46 | O=C1C=C(CN2CCN(C(=O)Cn3cc(NC(=O)c4cnn5cccnc45)c(-c4cc(Cl)ccc4OC(F)F)n3)CC2)CO1 [Example 351, N-[3-[5-chloro-2-(difluoromethoxy)phenyl]-1-(2-oxo-2-[4-[(5-oxo-2,5-dihydrofuran-3-yl)methyl]piperazin-1-yl]ethyl)-1H-pyrazol-4-yl]pyrazolo[1,5-a]pyrimidine-3-carboxamide] | 0.0365
11 | 0.75 | 0.33 | CN(CC1=CC(=O)OC1)C1CCN(C(=O)Cn2cc(NC(=O)c3cnn4cccnc34)c(-c3cc(Cl)ccc3OC(F)F)n2)CC1 [Example 352, N-[3-[5-chloro-2-(difluoromethoxy)phenyl]-1-[2-(4-[methyl[(5-oxo-2,5-dihydrofuran-3-yl)methyl]amino]piperidin-1-yl)-2-oxoethyl]-1H-pyrazol-4-yl]pyrazolo[1,5-a]pyrimidine-3-carboxamide] | 0.0124
12 | 0.66 | 0.93 | O=C(Nc1cn([C@@H]2CCNC[C@H]2O)nc1-c1cc(Cl)ccc1OC(F)F)c1cnn2cccnc12 [Example 358, N-[3-[5-chloro-2-(difluoromethoxy)phenyl]-1-[(3R,4R)-3-hydroxypiperidin-4-yl]-1H-pyrazol-4-yl]pyrazolo[1,5-a]pyrimidine-3-carboxamide] | 0.0133
13 | 2.7 | 3.85 | O=C(Nc1cn([C@H]2CCNC[C@@H]2O)nc1-c1cc(Cl)ccc1OC(F)F)c1cnn2cccnc12 [Example 359, N-[3-[5-chloro-2-(difluoromethoxy)phenyl]-1-[(3S,4S)-3-hydroxypiperidin-4-yl]-1H-pyrazol-4-yl]pyrazolo[1,5-a]pyrimidine-3-carboxamide] | 0.0309
14 | 1.21 | 4.15 | O=C(O)CN(CCn1cc(NC(=O)c2cnn3cccnc23)c(-c2cc(Cl)ccc2OC(F)F)n1)Cc1cccnc1 [Example 363, 2-[(2-[3-[5-chloro-2-(difluoromethoxy)phenyl]-4-[pyrazolo[1,5-a]pyrimidine-3-amido]-1H-pyrazol-1-yl]ethyl)(pyridin-3-ylmethyl)amino]acetic acid] | 3.78
15 | 0.55 | 0.41 | O=C(O)CNC1CCN(C(=O)Cn2cc(NC(=O)c3cnn4cccnc34)c(-c3cc(Cl)ccc3OC(F)F)n2)CC1 [Example 365, 2-[[1-(2-[3-[5-chloro-2-(difluoromethoxy)phenyl]-4-[pyrazolo[1,5-a]pyrimidine-3-amido]-1H-pyrazol-1-yl]acetyl)piperidin-4-yl]amino]acetic acid] | 7.56
16 | 0.99 | 1.07 | CCOC(=O)CN1CCC(n2cc(NC(=O)c3cnn4cccnc34)c(-c3cc(Cl)ccc3OC(F)F)n2)CC1 [Example 366, ethyl 2-(4-[3-[5-chloro-2-(difluoromethoxy)phenyl]-4-[pyrazolo[1,5-a]pyrimidine-3-amido]-1H-pyrazol-1-yl]piperidin-1-yl)acetate] | 0.312
17 | 0.5 | 0.83 | O=C(Nc1cn(CCNCc2ncco2)nc1-c1cc(Cl)ccc1OC(F)F)c1cnn2cccnc12 [Example 367, N-[3-[5-chloro-2-(difluoromethoxy)phenyl]-1-[2-[(1,3-oxazol-2-ylmethyl)amino]ethyl]-1H-pyrazol-4-yl]pyrazolo[1,5-a]pyrimidine-3-carboxamide] | 0.0352
18 | 1.25 | 1.13 | CN[C@@H](C)Cn1cc(NC(=O)c2cnn3cccnc23)c(-c2cc(Cl)ccc2OC(F)F)n1 [Example 369, N-[3-[5-chloro-2-(difluoromethoxy)phenyl]-1-[(2S)-2-(methylamino)propyl]-1H-pyrazol-4-yl]pyrazolo[1,5-a]pyrimidine-3-carboxamide] | 0.0093
19 | 1.37 | 1.37 | C[C@@H](Cn1cc(NC(=O)c2cnn3cccnc23)c(-c2cc(Cl)ccc2OC(F)F)n1)N(C)C [Example 370, N-[3-[5-chloro-2-(difluoromethoxy)phenyl]-1-[(2S)-2-(dimethylamino)propyl]-1H-pyrazol-4-yl]pyrazolo[1,5-a]pyrimidine-3-carboxamide] | 0.0402
20 | 1.24 | 0.7 | CC(C)N1CCN(C(=O)Cn2cc(NC(=O)c3cnn4cccnc34)c(-c3cc(Cl)ccc3OC(F)F)n2)CC1 [Example 373, N-[3-[5-chloro-2-(difluoromethoxy)phenyl]-1-[2-oxo-2-[4-(propan-2-yl)piperazin-1-yl]ethyl]-1H-pyrazol-4-yl]pyrazolo[1,5-a]pyrimidine-3-carboxamide] | 0.0342
21 | 0.88 | 0.45 | O=C(Nc1cn(CC(=O)N2CCN(CC3CC3)CC2)nc1-c1cc(Cl)ccc1OC(F)F)c1cnn2cccnc12 [Example 374, N-[3-[5-chloro-2-(difluoromethoxy)phenyl]-1-[2-[4-(cyclopropylmethyl)piperazin-1-yl]-2-oxoethyl]-1H-pyrazol-4-yl]pyrazolo[1,5-a]pyrimidine-3-carboxamide] | 0.0295
22 | 1.54 | 0.75 | CC1CN(C)CCN1C(=O)Cn1cc(NC(=O)c2cnn3cccnc23)c(-c2cc(Cl)ccc2OC(F)F)n1 (stereo not drawn) [Example 375, N-[3-[5-chloro-2-(difluoromethoxy)phenyl]-1-[2-(2,4-dimethylpiperazin-1-yl)-2-oxoethyl]-1H-pyrazol-4-yl]pyrazolo[1,5-a]pyrimidine-3-carboxamide] | 0.0716
